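96-well plates; 48 h exposure; 5 concentrations. Endpoints by linear interpolation between flanking doses. Not reached: highest tested concentration assigned. The concentration for 50% growth inhibition is given as GI50. TGI is the concentration that stops growth completely.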
What was measured:
Test in all cases: DTP human tumour cell line panel, 48 h
786-0 renal = tested on: 786-0 renal
A498 renal = tested on: A498 renal
A549 NSCLC = tested on: A549 NSCLC
BT-549 breast = tested on: BT-549 breast
CAKI-1 renal = tested on: CAKI-1 renal
CCRF-CEM leukemia = tested on: CCRF-CEM leukemia
COLO 205 colon = tested on: COLO 205 colon
DU-145 prostate = tested on: DU-145 prostate
EKVX NSCLC = tested on: EKVX NSCLC
HCC-2998 colon = tested on: HCC-2998 colon
HCT-116 colon = tested on: HCT-116 colon
HCT-15 colon = tested on: HCT-15 colon
HL-60(TB) leukemia = tested on: HL-60(TB) leukemia
HOP-62 NSCLC = tested on: HOP-62 NSCLC
HOP-92 NSCLC = tested on: HOP-92 NSCLC
HS 578T breast = tested on: HS 578T breast
HT29 colon = tested on: HT29 colon
K-562 leukemia = tested on: K-562 leukemia
KM12 colon = tested on: KM12 colon
LOX IMVI melanoma = tested on: LOX IMVI melanoma
M14 melanoma = tested on: M14 melanoma
MCF7 breast = tested on: MCF7 breast
MDA-MB-435 = tested on: MDA-MB-435
MOLT-4 leukemia = tested on: MOLT-4 leukemia
NCI-H226 lung = tested on: NCI-H226 lung
NCI-H23 lung = tested on: NCI-H23 lung
NCI-H460 lung = tested on: NCI-H460 lung
NCI-H522 lung = tested on: NCI-H522 lung
NCI/ADR-RES ovarian = tested on: NCI/ADR-RES ovarian
OVCAR-3 ovarian = tested on: OVCAR-3 ovarian
OVCAR-4 ovarian = tested on: OVCAR-4 ovarian
OVCAR-8 ovarian = tested on: OVCAR-8 ovarian
PC-3 prostate = tested on: PC-3 prostate
RPMI-8226 leukemia = tested on: RPMI-8226 leukemia
RXF 393 renal = tested on: RXF 393 renal
SF-268 CNS = tested on: SF-268 CNS
SF-295 CNS = tested on: SF-295 CNS
SK-MEL-2 melanoma = tested on: SK-MEL-2 melanoma
SK-MEL-5 melanoma = tested on: SK-MEL-5 melanoma
SK-OV-3 ovarian = tested on: SK-OV-3 ovarian
SNB-75 CNS = tested on: SNB-75 CNS
SR leukemia = tested on: SR leukemia
SW-620 colon = tested on: SW-620 colon
T-47D breast = tested on: T-47D breast
TK-10 renal = tested on: TK-10 renal
U251 CNS = tested on: U251 CNS
UACC-257 melanoma = tested on: UACC-257 melanoma
ACHN renal = tested on: ACHN renal
IGROV1 ovarian = tested on: IGROV1 ovarian
MALME-3M melanoma = tested on: MALME-3M melanoma
MDA-MB-231 breast = tested on: MDA-MB-231 breast
OVCAR-5 ovarian = tested on: OVCAR-5 ovarian
SF-539 CNS = tested on: SF-539 CNS
SK-MEL-28 melanoma = tested on: SK-MEL-28 melanoma
SN12C renal = tested on: SN12C renal
SNB-19 CNS = tested on: SNB-19 CNS
UACC-62 melanoma = tested on: UACC-62 melanoma
UO-31 renal = tested on: UO-31 renal

COc1cccc(Nc2nccc(Nc3ccc4[nH]ncc4c3)n2)c1
GI50 (786-0 renal): 1.46 µM
TGI (786-0 renal): 2.91 µM
GI50 (A498 renal): 1.65 µM
TGI (A498 renal): 5.3 µM
GI50 (A549 NSCLC): 1.71 µM
TGI (A549 NSCLC): 3.74 µM
GI50 (BT-549 breast): 1.67 µM
TGI (BT-549 breast): 3.71 µM
GI50 (CAKI-1 renal): 0.993 µM
TGI (CAKI-1 renal): 2.51 µM
GI50 (CCRF-CEM leukemia): 0.901 µM
TGI (CCRF-CEM leukemia): 4.56 µM
GI50 (COLO 205 colon): 1.57 µM
TGI (COLO 205 colon): 3.26 µM
GI50 (DU-145 prostate): 1.3 µM
TGI (DU-145 prostate): 2.85 µM
GI50 (EKVX NSCLC): 1.64 µM
TGI (EKVX NSCLC): 4.09 µM
GI50 (HCC-2998 colon): 1.79 µM
TGI (HCC-2998 colon): 3.36 µM
GI50 (HCT-116 colon): 1.59 µM
TGI (HCT-116 colon): 3.23 µM
GI50 (HCT-15 colon): 1.21 µM
TGI (HCT-15 colon): 2.91 µM
GI50 (HL-60(TB) leukemia): 1.53 µM
TGI (HL-60(TB) leukemia): 3.56 µM
GI50 (HOP-62 NSCLC): 1.71 µM
TGI (HOP-62 NSCLC): 3.78 µM
GI50 (HOP-92 NSCLC): 1.45 µM
TGI (HOP-92 NSCLC): 4.14 µM
GI50 (HS 578T breast): 1.79 µM
TGI (HS 578T breast): 4.61 µM
GI50 (HT29 colon): 1.52 µM
TGI (HT29 colon): 3.45 µM
GI50 (K-562 leukemia): 1.3 µM
TGI (K-562 leukemia): 3.89 µM
GI50 (KM12 colon): 1.64 µM
TGI (KM12 colon): 4.81 µM
GI50 (LOX IMVI melanoma): 1.44 µM
TGI (LOX IMVI melanoma): 3.19 µM
GI50 (M14 melanoma): 1.35 µM
TGI (M14 melanoma): 2.81 µM
GI50 (MCF7 breast): 1.26 µM
TGI (MCF7 breast): 3.11 µM
GI50 (MDA-MB-435): 1.49 µM
TGI (MDA-MB-435): 3.18 µM
GI50 (MOLT-4 leukemia): 0.525 µM
TGI (MOLT-4 leukemia): 2.83 µM
GI50 (NCI-H226 lung): 1.82 µM
TGI (NCI-H226 lung): 4.46 µM
GI50 (NCI-H23 lung): 1.69 µM
TGI (NCI-H23 lung): 3.83 µM
GI50 (NCI-H460 lung): 1.64 µM
TGI (NCI-H460 lung): 4.17 µM
GI50 (NCI-H522 lung): 1.48 µM
TGI (NCI-H522 lung): 2.86 µM
GI50 (NCI/ADR-RES ovarian): 1.54 µM
TGI (NCI/ADR-RES ovarian): 4.36 µM
GI50 (OVCAR-3 ovarian): 1.58 µM
TGI (OVCAR-3 ovarian): 4.07 µM
GI50 (OVCAR-4 ovarian): 1.46 µM
TGI (OVCAR-4 ovarian): 4.03 µM
GI50 (OVCAR-8 ovarian): 1.67 µM
TGI (OVCAR-8 ovarian): 4.39 µM
GI50 (PC-3 prostate): 1.34 µM
TGI (PC-3 prostate): 3.12 µM
GI50 (RPMI-8226 leukemia): 1.36 µM
TGI (RPMI-8226 leukemia): 4.19 µM
GI50 (RXF 393 renal): 1.06 µM
TGI (RXF 393 renal): 2.33 µM
GI50 (SF-268 CNS): 1.86 µM
TGI (SF-268 CNS): 5.89 µM
GI50 (SF-295 CNS): 1.66 µM
TGI (SF-295 CNS): 3.17 µM
GI50 (SK-MEL-2 melanoma): 1.62 µM
TGI (SK-MEL-2 melanoma): 3.27 µM
GI50 (SK-MEL-5 melanoma): 1.22 µM
TGI (SK-MEL-5 melanoma): 2.47 µM
GI50 (SK-OV-3 ovarian): 2.31 µM
TGI (SK-OV-3 ovarian): 5.4 µM
GI50 (SNB-75 CNS): 1.39 µM
TGI (SNB-75 CNS): 3.13 µM
GI50 (SR leukemia): 1.34 µM
TGI (SR leukemia): 4.93 µM
GI50 (SW-620 colon): 2.41 µM
TGI (SW-620 colon): 6.13 µM
GI50 (T-47D breast): 1.05 µM
TGI (T-47D breast): 3.12 µM
GI50 (TK-10 renal): 1.42 µM
TGI (TK-10 renal): 2.82 µM
GI50 (U251 CNS): 1.58 µM
TGI (U251 CNS): 3.18 µM
GI50 (UACC-257 melanoma): 2.04 µM
TGI (UACC-257 melanoma): 3.72 µM

CC(=O)N[C@@H](Cc1ccc(OP(=O)(O)O)cc1)C(=O)N[C@H]1CCC(=O)N2CCC[C@@H](C(=O)NCc3ccc(O)cc3)N2C1=O
GI50 (786-0 renal): > 25 µM
TGI (786-0 renal): > 25 µM
GI50 (A498 renal): > 25 µM
TGI (A498 renal): > 25 µM
GI50 (A549 NSCLC): > 25 µM
TGI (A549 NSCLC): > 25 µM
GI50 (ACHN renal): > 25 µM
TGI (ACHN renal): > 25 µM
GI50 (BT-549 breast): > 25 µM
TGI (BT-549 breast): > 25 µM
GI50 (CAKI-1 renal): > 25 µM
TGI (CAKI-1 renal): > 25 µM
GI50 (CCRF-CEM leukemia): > 25 µM
TGI (CCRF-CEM leukemia): > 25 µM
GI50 (COLO 205 colon): > 25 µM
TGI (COLO 205 colon): > 25 µM
GI50 (DU-145 prostate): > 25 µM
TGI (DU-145 prostate): > 25 µM
GI50 (HCC-2998 colon): > 25 µM
TGI (HCC-2998 colon): > 25 µM
GI50 (HCT-116 colon): > 25 µM
TGI (HCT-116 colon): > 25 µM
GI50 (HCT-15 colon): > 25 µM
TGI (HCT-15 colon): > 25 µM
GI50 (HL-60(TB) leukemia): > 25 µM
TGI (HL-60(TB) leukemia): > 25 µM
GI50 (HOP-62 NSCLC): > 25 µM
TGI (HOP-62 NSCLC): > 25 µM
GI50 (HS 578T breast): > 25 µM
TGI (HS 578T breast): > 25 µM
GI50 (HT29 colon): > 25 µM
TGI (HT29 colon): > 25 µM
GI50 (IGROV1 ovarian): > 25 µM
TGI (IGROV1 ovarian): > 25 µM
GI50 (K-562 leukemia): > 25 µM
TGI (K-562 leukemia): > 25 µM
GI50 (KM12 colon): > 25 µM
TGI (KM12 colon): > 25 µM
GI50 (LOX IMVI melanoma): > 25 µM
TGI (LOX IMVI melanoma): > 25 µM
GI50 (M14 melanoma): > 25 µM
TGI (M14 melanoma): > 25 µM
GI50 (MALME-3M melanoma): > 25 µM
TGI (MALME-3M melanoma): > 25 µM
GI50 (MCF7 breast): > 25 µM
TGI (MCF7 breast): > 25 µM
GI50 (MDA-MB-231 breast): > 25 µM
TGI (MDA-MB-231 breast): > 25 µM
GI50 (MDA-MB-435): > 25 µM
TGI (MDA-MB-435): > 25 µM
GI50 (MOLT-4 leukemia): > 25 µM
TGI (MOLT-4 leukemia): > 25 µM
GI50 (NCI-H226 lung): > 25 µM
TGI (NCI-H226 lung): > 25 µM
GI50 (NCI-H23 lung): > 25 µM
TGI (NCI-H23 lung): > 25 µM
GI50 (NCI-H460 lung): > 25 µM
TGI (NCI-H460 lung): > 25 µM
GI50 (NCI-H522 lung): > 25 µM
TGI (NCI-H522 lung): > 25 µM
GI50 (NCI/ADR-RES ovarian): > 25 µM
TGI (NCI/ADR-RES ovarian): > 25 µM
GI50 (OVCAR-3 ovarian): > 25 µM
TGI (OVCAR-3 ovarian): > 25 µM
GI50 (OVCAR-4 ovarian): > 25 µM
TGI (OVCAR-4 ovarian): > 25 µM
GI50 (OVCAR-5 ovarian): > 25 µM
TGI (OVCAR-5 ovarian): > 25 µM
GI50 (OVCAR-8 ovarian): > 25 µM
TGI (OVCAR-8 ovarian): > 25 µM
GI50 (PC-3 prostate): > 25 µM
TGI (PC-3 prostate): > 25 µM
GI50 (RPMI-8226 leukemia): > 25 µM
TGI (RPMI-8226 leukemia): > 25 µM
GI50 (RXF 393 renal): > 25 µM
TGI (RXF 393 renal): > 25 µM
GI50 (SF-268 CNS): > 25 µM
TGI (SF-268 CNS): > 25 µM
GI50 (SF-295 CNS): > 25 µM
TGI (SF-295 CNS): > 25 µM
GI50 (SF-539 CNS): > 25 µM
TGI (SF-539 CNS): > 25 µM
GI50 (SK-MEL-2 melanoma): > 25 µM
TGI (SK-MEL-2 melanoma): > 25 µM
GI50 (SK-MEL-28 melanoma): > 25 µM
TGI (SK-MEL-28 melanoma): > 25 µM
GI50 (SK-MEL-5 melanoma): > 25 µM
TGI (SK-MEL-5 melanoma): > 25 µM
GI50 (SK-OV-3 ovarian): > 25 µM
TGI (SK-OV-3 ovarian): > 25 µM
GI50 (SN12C renal): > 25 µM
TGI (SN12C renal): > 25 µM
GI50 (SNB-19 CNS): > 25 µM
TGI (SNB-19 CNS): > 25 µM
GI50 (SNB-75 CNS): > 25 µM
TGI (SNB-75 CNS): > 25 µM
GI50 (SR leukemia): > 25 µM
TGI (SR leukemia): > 25 µM
GI50 (SW-620 colon): > 25 µM
TGI (SW-620 colon): > 25 µM
GI50 (T-47D breast): > 25 µM
TGI (T-47D breast): > 25 µM
GI50 (TK-10 renal): > 25 µM
TGI (TK-10 renal): > 25 µM
GI50 (U251 CNS): > 25 µM
TGI (U251 CNS): > 25 µM
GI50 (UACC-257 melanoma): > 25 µM
TGI (UACC-257 melanoma): > 25 µM
GI50 (UACC-62 melanoma): > 25 µM
TGI (UACC-62 melanoma): > 25 µM
GI50 (UO-31 renal): 24.2 µM
TGI (UO-31 renal): > 25 µM

Reference: PubChem BioAssay (NCI)
